Test results: patent US7670631B2, “Method for the prevention of malaria infection of humans by hepatocyte growth factor antagonists” (ALFAMA—Investigação e Desenvolvimento de Produtos …, priority 2003, dated 2010)

Assays:
[1] = in vivo; cited from earlier work
P. berghei sporozoites [2] = test: Genistein effect on hepatic infection with Plasmodium berghei sporozoites in vitro (EEF count in HepG2 cells); assay type: cell-based; details: Genistein at 25 μM, 24 h with P. berghei sporozoites
Protocol: HepG2 cells were maintained in DMEM 10% FCS, 1 mM glutamine. P. berghei sporozoites were obtained from dissection of infected Anopheles stephensi mosquito salivary glands. P. berghei sporozoites ([…]) were added to monolayers of 2×10^5 HepG2 cells (in the presence or not of Genistein) for 24 h before fixation and staining with anti-EEF mAb (2E6), followed by anti-mouse IgG-FITC antibodies. Infection was quantified by counting the number of EEFs per coverslip.

P. berghei sporozoites [3] = test: Infection susceptibility (ISIF) assay: HepG2 cells pre-incubated with growth factors or conditioned medium plus antibodies before P. berghei sporozoites; assay type: cell-based, Plasmodium berghei; details: HepG2 cells pre-incubated before addition of P. berghei sporozoites
Protocol: (§1) Supernatant were generated from cultures containing the mouse hepatoma cells Hepa1-6 and P. yoelii sporozoites (mH/Py conditioned media). To detect ISIF activity, fresh hepatoma cells were incubated with mH/Py conditioned media for different periods of time. Cells were then washed and incubated with P. yoelii sporozoites. Infection was examined 24 h later by staining the exo-erythrocytic forms of the parasite (EEFs). As controls, we used Hepa1-6 cells pre-incubated for identical periods of time with fresh medium before addition of P. yoelii sporozoites. Pre-treatment of hepatocytes with mH/Py conditioned medium increases the level of infection (FIG. 1a). […] Since sporozoites are obtained by dissection of infected mosquito salivary glands, we also tested conditioned media that were obtained from cultures containing hepatoma cells and material of salivary glands from uninfected mosquitoes. Medium conditioned in this way was ineffective (FIG. 1b).
To test whether ISIF activity was mediated by known growth factor, two well-characterized growth factors known to be released after injury were tested: basic fibroblast growth factor (bFGF) and hepatocyte growth factor (HGF). HepG2 cells were pre-incubated with human HGF or bFGF before addition of P. berghei sporozoites. As positive and negative controls, cells were incubated with hH/Pb conditioned medium or fresh medium, respectively. […]

Plasmodium berghei = details: cited from earlier work
ISIF/HGF secretion = ISIF/HGF secretion by HepG2 cells after wounding (infection susceptibility assay); assay type: cell-based; details: HepG2 cells treated, washed, incubated with P. berghei sporozoites to generate conditioned medium
Protocol: HepG2 cells were treated with Brefeldin-A (BFA), an inhibitor of protein transport to the Golgi vesicles that blocks constitutive secretion in eukaryotic cells. BFA treated cells, and untreated control cells, were then washed and incubated with P. berghei sporozoites to generate conditioned medium. […] The effect of BFA was dose-dependent. Supernatants of mechanically wounded HepG2 cells were collected after various time periods of incubation. ISIF/HGF levels, as determined by the infection susceptibility assay (FIG. 2c) and western blot analysis, (FIG. 2d) increased with time. The ISIF activity was abolished by the addition of neutralizing anti-HGF antibodies (FIG. 2c).

HGF receptor = test: ISIF activity of medium conditioned by primary hepatocytes; assay type: cell-based
Protocol: as §1
Primary hepatocytes were obtained by liver perfusion. […] Cells that have been traversed by sporozoites can be detected using a cell-impermeant fluorescent tracer macromolecule that only penetrates into wounded cells. P. yoelii sporozoites were incubated with Hepa1-6 cells in the presence of fluorescent-labelled dextran before staining for HGF. […]

MET = biological target: T1, MET (Homo sapiens, UniProt P08581); details: cited from earlier work
T1 construct: host or cells: MLP-29 cells, GTL-16 gastric carcinoma cells and NIH3T3 fibroblasts are named in the same paragraph
T1 sequence (P08581 25-1390): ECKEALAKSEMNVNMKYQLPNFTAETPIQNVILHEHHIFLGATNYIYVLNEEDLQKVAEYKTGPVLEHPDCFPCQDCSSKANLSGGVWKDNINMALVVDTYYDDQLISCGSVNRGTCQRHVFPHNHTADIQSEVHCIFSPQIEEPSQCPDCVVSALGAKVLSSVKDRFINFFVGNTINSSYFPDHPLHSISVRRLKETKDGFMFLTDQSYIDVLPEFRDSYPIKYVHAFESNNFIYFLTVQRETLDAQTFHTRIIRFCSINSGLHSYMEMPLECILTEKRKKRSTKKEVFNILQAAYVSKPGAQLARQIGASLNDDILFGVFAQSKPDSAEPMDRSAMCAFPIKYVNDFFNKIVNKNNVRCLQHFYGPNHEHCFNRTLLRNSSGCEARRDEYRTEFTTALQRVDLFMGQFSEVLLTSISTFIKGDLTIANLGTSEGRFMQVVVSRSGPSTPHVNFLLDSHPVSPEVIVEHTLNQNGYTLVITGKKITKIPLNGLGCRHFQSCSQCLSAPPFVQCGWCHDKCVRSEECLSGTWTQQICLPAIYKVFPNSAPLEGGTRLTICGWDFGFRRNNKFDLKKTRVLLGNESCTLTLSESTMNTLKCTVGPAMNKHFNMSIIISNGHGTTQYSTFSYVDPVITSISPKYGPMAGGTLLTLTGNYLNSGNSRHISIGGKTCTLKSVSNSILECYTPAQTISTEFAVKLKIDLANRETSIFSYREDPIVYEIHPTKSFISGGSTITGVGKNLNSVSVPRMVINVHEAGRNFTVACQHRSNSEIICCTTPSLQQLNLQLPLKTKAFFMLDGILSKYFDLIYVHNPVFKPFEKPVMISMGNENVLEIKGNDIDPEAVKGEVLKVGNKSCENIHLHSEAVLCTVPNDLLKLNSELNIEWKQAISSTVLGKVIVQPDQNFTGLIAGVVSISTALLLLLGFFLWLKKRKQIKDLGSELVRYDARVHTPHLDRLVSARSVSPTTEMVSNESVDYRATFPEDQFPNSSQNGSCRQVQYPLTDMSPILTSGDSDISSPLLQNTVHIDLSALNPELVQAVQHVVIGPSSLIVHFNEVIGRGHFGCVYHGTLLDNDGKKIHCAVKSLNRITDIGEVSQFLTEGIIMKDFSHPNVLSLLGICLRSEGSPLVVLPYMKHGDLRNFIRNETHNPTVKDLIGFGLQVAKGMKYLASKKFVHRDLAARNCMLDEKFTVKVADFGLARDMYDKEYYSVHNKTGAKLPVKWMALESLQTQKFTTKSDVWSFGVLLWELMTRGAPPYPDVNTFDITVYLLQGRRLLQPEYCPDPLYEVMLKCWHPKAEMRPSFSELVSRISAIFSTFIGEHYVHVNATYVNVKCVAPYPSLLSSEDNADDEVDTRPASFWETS

In the case of `COc1cc(NC(C)CCCN)c2ncccc2c1` (stereo not shown) [Primaquine, primaquine], the half life [1] is listed as “very short”.
For `COc1cc(C)c2c(Oc3cccc(C(F)(F)F)c3)c(OC)cc(NC(C)CCCN)c2n1` (stereo not shown) [tafenoquine], the terminal half life [1] is listed as “about 14 days”.
For `OC(c1cc(C(F)(F)F)nc2c(C(F)(F)F)cccc12)C1CCCCN1` (stereo not shown) [Mefloquine, mefloquine], the elimination half life [1] is listed as “two to three”.
With `O=c1c(-c2ccc(O)cc2)coc2cc(O)cc(O)c12` [Genistein, genistein] the “reduction in infection (number of EEFs per coverslip)” value (P. berghei sporozoites [2]) was “approximately 75%”.
With “HGF: hepatocyte growth factor, ligand of the receptor protein tyrosine kinase Met” the “effect on infection of pre-incubation of HepG2 cells with growth factor” value (P. berghei sporozoites [3]) was “increased infection to a greater extent than the hH/Pb conditioned medium”.
In the case of `C[C@@H]1C[C@H]2O[C@@H]2/C=C\C=C\C(=O)Cc2c(Cl)c(O)cc(O)c2C(=O)O1` [radicicol], the “activity against Plasmodium berghei in mice” value (Plasmodium berghei) is given as “moderately active”.
For bFGF: basic fibroblast growth factor, the “effect on infection of pre-incubation of HepG2 cells with growth factor” value (P. berghei sporozoites [3]) was “ineffective”.
For `C[C@H]1CCC/C=C/[C@@H]2C[C@H](O)C[C@H]2[C@H](O)/C=C/C(=O)O1` [BFA, Brefeldin-A], the ISIF/HGF secretion (ISIF/HGF secretion) was “inhibits ISIF/HGF secretion”.
For `COC(=O)[C@@]1(O)C[C@H]2O[C@]1(C)n1c3ccccc3c3c4c(c5c6ccccc6n2c5c31)C(=O)NC4` [K252a], the ISIF activity (HGF receptor) is given as “abolished ISIF activity” and the “concentration inhibiting Met mediated signals” value (MET) is given as “nanomolar concentrations”.
